Measurements as given in article PMC8896928, “Preparation, Characterization, and Preliminary Imaging Study of [^188Re]Re-Ibandronate as a Novel Theranostic Radiopharmaceutical for Bone Metastasis” (Contrast Media & Molecular Imaging, 2022).
Values joined by “and” are separate entries in the source; they are usually repeats but may differ in a detail not shown here. Equal entries are not always repeated. Where two headings read alike, the source gives them in different places.

Conditions: 37°C
Protocol: The RCP of [^188Re]Re-IBA was determined by PC. Acetone and 0.9% NaCl were used as the eluents. A TLC scanner was used to measure the distribution of radioactivity on the PC strips. The RCP of [^188Re]Re-IBA was calculated from the peak area measurements as follows: […]
Freshly prepared [^188Re]Re-IBA was incubated in 0.9% NaCl and fresh human serum at 37°C. The RCP of the tubes was determined by PC at 1 h, 3 h, 6 h, 12 h, and 24 h. The experiment was repeated thrice. The results are expressed as mean ± standard deviation ( χ¯ ± s).

Structure (SMILES): CCCCCN(C)CCC1(O)P(=O)(O)[O][188Re]2([OH])([OH])([O]P1(=O)O)[O]P(=O)(O)C(O)(CCN(C)CCCCC)P(=O)(O)[O]2 (stereo not shown) [[^188Re]Re-IBA]
- RCP, in vitro stability (0.9% NaCl, 1 h): 98.14 ± 0.2%
- RCP, in vitro stability (0.9% NaCl, 3 h): 97.82 ± 0.6%
- RCP, in vitro stability (0.9% NaCl, 6 h): 96.99 ± 1.3%
- RCP, in vitro stability (0.9% NaCl, 12 h): 95.33 ± 1.1%
- RCP, in vitro stability (0.9% NaCl, 24 h): 91.44% and 91.44 ± 0.8%
- RCP, in vitro stability (human serum, 1 h): 99.01 ± 0.5%
- RCP, in vitro stability (human serum, 3 h): 98.67 ± 0.9%
- RCP, in vitro stability (human serum, 6 h): 98.15 ± 0.8%
- RCP, in vitro stability (human serum, 12 h): 96.90 ± 1.4%
- RCP, in vitro stability (human serum, 24 h): 93.06% and 93.06 ± 1.6%
